In patent publication US8324390B2, “Tetrazole-substituted anthranilamides as pesticides” (Bayer CropScience AG, priority 2008, dated 2012):
Where two headings read alike, the source gives them in different places.

Legend:
[1] = log P determination by HPLC (EEC Directive 79/831 Annex V.A8); type: physicochemical
Experimental: The measurements were carried out using an Agilent 1100 LC system with a 50*4.6 Zorbax Eclipse C18 1.8 μm column (oven temperature 55° C., flow rate 2.0 ml/min).
The following mobile phases were used:
Mobile phase A: acetonitrile+1000 μl of formic acid/l
Mobile phase B: Millipore water+900 μl of formic acid/l

[2] = test system: caterpillars of the armyworm (Spodoptera frugiperda); assay: Spodoptera frugiperda test (SPODFR spray treatment); type: in vivo; conditions: Spodoptera frugiperda, foliar, read-out: effect in % (caterpillars killed)
From the text: (§1) Solvent: 78.0 parts by weight of acetone

[3] = test system: green peach aphid (Myzus persicae); assay: Myzus test (MYZUPE spray treatment); type: in vivo; conditions: Myzus persicae, foliar, read-out: effect in % (aphids killed)
From the text: Solvent: 78 parts by weight of acetone
as §1

[4] = test system: larvae of the mustard beetle (Phaedon cochleariae); assay: Phaedon test (PHAECO spray treatment); conditions: Phaedon cochleariae, in Brassica rapa, foliar, read-out: effect in % (beetle larvae killed)
[5] = reversed-phase HPLC, Zorbax Eclipse C18 column, determined by HPLC according to EEC Directive 79/831 Annex V.A8, read-out: log P
[6] = application rate 100 g/ha, maize leaf discs
[7] = application rate 100 g/ha, Chinese cabbage leaf discs

Row | chromatographic logP [1, 5] | SMILES | pest or weed control at 100 g/ha [2, 6] [%] | pest or weed control at 100 g/ha [3, 7] [%] | pest or weed control at 100 g/ha [4] [%] | chromatographic logP ([1]; log P) | pest or weed control at 100 g/ha ([2]; in Zea mays) [%] | pest or weed control at 100 g/ha ([3]; in Brassica rapa) [%]
1 | 2.47 | CNC(=O)c1cc(C#N)cc(C)c1NC(=O)c1cc(Cn2nnnc2C(F)(F)F)nn1-c1ncccc1Br [Example 477] | ≥ 80 | ≥ 80 | ≥ 80 |  |  | 
2 |  | CSC[C@H](C)NC(=O)c1cc(C)cc(C)c1NC(=O)c1cc(Cn2nnc(C(F)(F)F)n2)nn1-c1ncccc1Cl [Example 86] |  |  | ≥ 80 | 3.5 | ≥ 80 | ≥ 80
3 | 2.73 | CNC(=O)c1cc(S(C)(=O)=O)cc(C)c1NC(=O)c1cc(Cn2nnc(C(F)(F)F)n2)nn1-c1ccccc1Cl [Example 441] | ≥ 80 | ≥ 80 | ≥ 80 |  |  | 
4 |  | Cc1cc(F)cc(C(=O)NC(C)C2CC2)c1NC(=O)c1cc(Cn2nnc(C(F)(F)F)n2)nn1-c1ncccc1Cl (stereo not drawn) [Example 32] |  |  | ≥ 80 | 3.41 | ≥ 80 | ≥ 80
5 |  | CSC[C@H](C)NC(=O)c1cc(Cl)cc(Cl)c1NC(=O)c1cc(Cn2nnc(C(F)(F)F)n2)nn1-c1ncccc1Cl [Example 64] |  |  | ≥ 80 | 3.62 | ≥ 80 | ≥ 80
6 | 2.88 | CCNC(=O)c1cc(Cl)cc(C)c1NC(=O)c1cc(Cn2nnnc2C(F)(F)F)nn1-c1ncccc1Br [Example 494] | ≥ 80 | ≥ 80 | ≥ 80 |  |  | 
7 | 3.43 | CNC(=O)c1cc(C#N)cc(C)c1NC(=O)c1cc(Cn2nnc(C(F)(F)C(F)(F)F)n2)nn1-c1ccccc1Cl [Example 430] | ≥ 80 | ≥ 80 | ≥ 80 |  |  | 
8 |  | Cc1cc(C#N)cc(C(=O)NC2CCC2)c1NC(=O)c1cc(Cn2nnc(C(F)(F)F)n2)nn1-c1ncccc1Cl [Example 24] |  |  | ≥ 80 | 3.18 | ≥ 80 | ≥ 80
9 |  | COCC(C)NC(=O)c1cc(C#N)cc(C)c1NC(=O)c1cc(Cn2nnc(C(F)(F)F)n2)nn1-c1ncccc1Cl (stereo not drawn) [Example 98] |  |  | ≥ 80 | 2.95 | ≥ 80 | ≥ 80
10 |  | Cc1cc(Cl)cc(C(N)=O)c1NC(=O)c1cc(Cn2nnc(C(F)(C(F)(F)F)C(F)(F)F)n2)nn1-c1ncccc1Cl [Example 360] |  |  | ≥ 80 | 3.46 | ≥ 80 | ≥ 80
11 |  | Cc1cc(F)cc(C(N)=O)c1NC(=O)c1cc(Cn2nnc(C(F)(F)F)n2)nn1-c1ncccc1Cl [Example 45] |  |  | ≥ 80 | 2.46 | ≥ 80 | ≥ 80
12 | 2.92 | Cc1cc(C#N)cc(C(=O)NC(C)(C)C)c1NC(=O)c1cc(Cn2nnnc2C(F)(F)F)nn1-c1ncccc1F [Example 509] | ≥ 80 | ≥ 80 | ≥ 80 |  |  | 
13 |  | Cc1cc(I)cc(C(N)=O)c1NC(=O)c1cc(Cn2nnc(C(F)(F)F)n2)nn1-c1ncccc1Cl [Example 67] |  |  | ≥ 80 | 2.95 | ≥ 80 | ≥ 80
14 |  | Cc1cc(C#N)cc(C(=O)NC(C)(C)C)c1NC(=O)c1cc(Cn2nnnc2C(F)(F)F)nn1-c1ncccc1Cl [Example 160] |  |  | ≥ 80 | 3.05 | ≥ 80 | ≥ 80
15 | 3.29 | Cc1cc(Br)cc(C(=O)NC(C)C)c1NC(=O)c1cc(Cn2nnnc2C(F)(F)F)nn1-c1ncccc1C(F)(F)F [Example 459] | ≥ 80 | ≥ 80 | ≥ 80 |  |  | 
